Where two headings read alike, the source gives them in different places.
What was measured:
crabgrass seedlings = assay: Soil bioassay, crabgrass root growth; format: in vivo, Digitaria sanguinalis L.; settings: Digitaria sanguinalis, soil media, read-out: concentration reducing root elongation by 50%
Excerpt: Large crabgrass was also included in the first two experiments because it is a common weed in turf settings. Prior experiments have shown that m-tyrosine is a potent inhibitor of root growth of large crabgrass and lettuce (Bertin et al., “Laboratory Assessment of the Allelopathic Effects of Fine Leaf Fescues,” J. Chem. Ecol. 29:1919-1937 (2003), which is hereby incorporated by reference in its entirety). Soil and MetroMix, as described as previously, were placed in 9-cm petri dishes, and 15 lettuce or crabgrass seeds were sown on the soil surface. Each experiment was replicated three times and was repeated over time.

Lettuce = assay: Weed and crop Petri dish bioassay, radicle length; format: in vivo, Lactuca sativa L.
Method: (§1) m-Tyrosine activity was bioassayed using selected weed and crop species. Growth inhibition as measured by radicle elongation was evaluated in dandelion (Taraxacum officinale Weber in […].), large crabgrass (Digitaria sanguinalis (L.) Scop.), velvetleaf (Abutilon theophrasti Medicus), black medic (Medicago lupulina L.), curly cress (Lepidium sativum L.), bamyardgrass (Echinochloa crus-galli.(L.) Beauv.), lettuce (Lactuca sativa L.), purslane (Portulaca oleracea L.), annual bluegrass (Poa annua L.), birdsfoot trefoil (Lotus corniculatus L.), broadleaf plantain (Plantago major L.), mouseear chickweed (Cerastium vulgatum L.), common chickweed (Stellaria media (L.) Vill.), white clover (Trifolium repens L.), wheat (Triticum aestivum L.), tomato (Lycopersicon esculentum var. esculentum P. Mill.), tobacco (Nicotiana tobacum L.), and sorghum sudangrass hybrid (Sorghum bicolor x Sudanese). Weeds were purchased from HerbiSeeds, England, tomato seeds were purchased from Agway (Ithaca N.Y.), and wheat, sudex and tobacco where donated by Pioneer Seeds (Johnson, Iowa). Seeds were sterilized by a water: ethanol mixture (1:1) for one minute and rinsed three times thoroughly in distilled water. […] At the end of the incubation period, radicle length was measured. […]

Large Crabgrass = assay: Weed and crop Petri dish bioassay, radicle length; format: in vivo, Digitaria sanguinalis (L.) Scop.
Method: m-Tyrosine activity was bioassayed using selected weed and crop species. Growth inhibition as measured by radicle elongation was evaluated in dandelion (Taraxacum officinale Weber in […].), large crabgrass (Digitaria sanguinalis (L.) Scop.), velvetleaf (Abutilon theophrasti Medicus), black medic (Medicago lupulina L.), curly cress (Lepidium sativum L.), bamyardgrass (Echinochloa crus-galli.(L.) Beauv.), lettuce (Lactuca sativa L.), purslane (Portulaca oleracea L.), annual bluegrass (Poa annua L.), birdsfoot trefoil (Lotus corniculatus L.), broadleaf plantain (Plantago major L.), mouseear chickweed (Cerastium vulgatum L.), common chickweed (Stellaria media (L.) Vill.), white clover (Trifolium repens L.), wheat (Triticum aestivum L.), tomato (Lycopersicon esculentum var. esculentum P. Mill.), tobacco (Nicotiana tobacum L.), and sorghum sudangrass hybrid (Sorghum bicolor x Sudanese). Weeds were purchased from HerbiSeeds, England, tomato seeds were purchased from Agway (Ithaca N.Y.), and wheat, sudex and tobacco where donated by Pioneer Seeds (Johnson, Iowa). Seeds were sterilized by a water: ethanol mixture (1:1) for one minute and rinsed three times thoroughly in distilled water. The simple phytotoxicity bioassay utilized consisted of the evaluation of radicle length of ten sterilized seeds of each weed/crop deposited on a filter paper containing the appropriate m-tyrosine test solution in 4.5 cm Petri dishes. […] A 1000 μL aliquot of the appropriate test solution was added to individual Petri dishes lined with Whatman No. 1 filter paper. Control dishes received 1000 μL of water. After seeds were placed on moistened filter paper, Petri dishes were transferred to a controlled environment with a light regime of 45,33 photon m^-2 s^-1 and maintained at an average temperature of 25° C. for 7 days. At the end of the incubation period, radicle length was measured. Treatments were replicated three times, and the experiment for each plant species tested was repeated three times.

[1] = system: selected monocot and dicot plants; assay: General phytotoxicity Petri dish bioassay, weed and crop species taken together; format: in vivo
Method: Using the Petri dish bioassay described above, various weed and crop species were tested for their susceptibility to m-tyrosine. Concentrations evaluated were 10, 20, 40, 80, 160, and 320 μM m-tyrosine dissolved in water.
m-Tyrosine activity was bioassayed using selected weed and crop species. Growth inhibition as measured by radicle elongation was evaluated in dandelion (Taraxacum officinale Weber in Weggers.), large crabgrass (Digitaria sanguinalis (L.) Scop.), velvetleaf (Abutilon theophrasti Medicus), black medic (Medicago lupulina L.), curly cress (Lepidium sativum L.), bamyardgrass (Echinochloa crus-galli.(L.) Beauv.), lettuce (Lactuca sativa L.), purslane (Portulaca oleracea L.), annual bluegrass (Poa annua L.), birdsfoot trefoil (Lotus corniculatus L.), broadleaf plantain (Plantago major L.), mouseear chickweed (Cerastium vulgatum L.), common chickweed (Stellaria media (L.) Vill.), white clover (Trifolium repens L.), wheat (Triticum aestivum L.), tomato (Lycopersicon esculentum var. esculentum P. Mill.), tobacco (Nicotiana tobacum L.), and sorghum sudangrass hybrid (Sorghum bicolor x Sudanese). Weeds were purchased from HerbiSeeds, England, tomato seeds were purchased from Agway (Ithaca N.Y.), and wheat, sudex and tobacco where donated by Pioneer Seeds (Johnson, Iowa). Seeds were sterilized by a water: ethanol mixture (1:1) for one minute and rinsed three times thoroughly in distilled water. The simple phytotoxicity bioassay utilized consisted of the evaluation of radicle length of ten sterilized seeds of each weed/crop deposited on a filter paper containing the appropriate m-tyrosine test solution in 4.5 cm Petri dishes. The amino acid analog, m-tyrosine was purchased from Sigma and formulated at concentrations of 0, 20, 40, 80, 160 and 320 μM by initially dissolving in aqueous solutions. A 1000 μL aliquot of the appropriate test solution was added to individual Petri dishes lined with Whatman No. 1 filter paper. Control dishes received 1000 μL of water. After seeds were placed on moistened filter paper, Petri dishes were transferred to a controlled environment with a light regime of 45,33 photon m^−2 s^−1 and maintained at an average temperature of 25° C. for 7 days. At the end of the incubation period, radicle length was measured. Treatments were replicated three times, and the experiment for each plant species tested was repeated three times.

Sudex = assay: Weed and crop Petri dish bioassay, radicle length; format: in vivo, Sorghum bicolor x Sudanese
Method: as §1

Velvetleaf = assay: Weed and crop Petri dish bioassay, radicle length; format: in vivo, Abutilon theophrasti Medicus
Method: as §1

Bacillus subtilis = assay: Antibacterial disc assay; format: cell-based
Method: (§2) m-Tyrosine was evaluated for its effect on several bacteria (Bacillus cereus, Bacillus subtilis, and Escherichia coli) grown on nutrient agar (Difco) plates (9 cm) and a fungal culture (Metarhizium anisopliae ([…].)) grown on potato dextrose agar (Difco) plates. These plates were spread with either 0.5 mL aliquots of a liquid bacterial culture grown for 18 h in nutrient broth or with 0.5 mL of a fungal spore suspension (1×10^6 spores/mL), and were allowed to dry for approximately 30 minutes. […] A disc moistened with 10 μl of water served as negative control, and positive controls consisted of discs spiked with ampicillin and tetracycline (5 μg). The plates were placed in an incubator at 25° C., and visually checked for zones of inhibition for up to four days. All experiments were performed in triplicate.

Bacillus cereus = assay: Antibacterial disc assay; format: cell-based
Method: as §2

Escherichia coli = assay: Antibacterial disc assay; format: cell-based
Method: as §2

Cress = assay: Weed and crop Petri dish bioassay, radicle length; format: in vivo, Lepidium sativum L.
Method: as §1

In the case of N[C@@H](Cc1cccc(O)c1)C(=O)O [m-tyrosine, 3-hydroxyphenylalanine], the IC50 (crabgrass seedlings) is reported as 4000 µM, the I10 (Lettuce) is reported as 6 µM and the IC50 (Lettuce; Lactuca sativa, read-out: I50) is reported as 20 µM. For the same molecule, the I10 (Large Crabgrass) was 20 µM, the I100 (Large Crabgrass) was 320 µM and the IC50 (Large Crabgrass; Digitaria sanguinalis, read-out: I50) was 38 µM. For the same molecule, the “effect on shoot elongation” value ([1]; in vivo) was “inhibitory to shoot elongation”, the “effect on seed germination” value ([1]; numerous seedling indicators) was “did not affect seed germination per se” and the IC50 ([1]; range over all plants exposed, read-out: concentration required to observe 50% inhibition of radicle elongation) was 10 to 260 µM. For the same molecule, the IC50 ([1]; range over other species evaluated (apart from mouseear chickweed), read-out: concentration for 50% inhibition of radicle elongation) was 14 to 253 µM, the I10 (Sudex) was 50 µM and the IC50 (Sudex; Sorghum bicolor, read-out: I50) was 151 µM. The I10 (Velvetleaf) was 40 µM, the IC50 (Velvetleaf; Abutilon theophrasti, read-out: I50) was 168 µM and the “growth inhibition” value (Bacillus subtilis) was “not inhibited”. The “growth inhibition” value (Bacillus cereus) was “not inhibited”, the “growth inhibition” value (Escherichia coli) was “not inhibited” and the I10 (Cress) was 15 µM. The IC50 (Cress; Lepidium sativum, read-out: I50) was 23 µM.

Source: patent US8461085B2, “Bioherbicide from Festuca spp” (Cornell Research Foundation, Inc., priority 2005, dated 2013)
